The source made the active and inactive calls. No rule for the calls is given here.
Tested on: CCRIS mutagenicity, Ames/micronucleus/aberration tests
Test: CCRIS mutagenicity studies
[1] = Test System: AMES SALMONELLA TYPHIMURIUM, Strain/Indicator: TA98, Metabolic Activation: NONE, Method: STANDARD PLATE
[2] = Test System: AMES SALMONELLA TYPHIMURIUM, Strain/Indicator: TA100, Metabolic Activation: NONE, Method: STANDARD PLATE
[3] = Test System: AMES SALMONELLA TYPHIMURIUM, Strain/Indicator: TA100, Metabolic Activation: RAT, LIVER, S-9, AROCLOR 1254, Method: STANDARD PLATE

SMILES: CC(C)[N+](=O)[O-]
- mutagenic call (End Point: IN VITRO CHROMOSOMAL ABERRATIONS, Test System: CHINESE HAMSTER OVARY CELLS, Metabolic Activation: NONE): inactive; negative
- mutagenic call (End Point: IN VITRO CHROMOSOMAL ABERRATIONS, Test System: CHINESE HAMSTER OVARY CELLS, Metabolic Activation: RAT, LIVER, S-9, AROCLOR 1254): inactive; negative
- mutagenic call (End Point: In vitro chromosomal aberrations, Test System: Chinese hamster lung (CHL/IU) cells, Metabolic Activation: None): inactive; negative
- mutagenic call (End Point: In vitro chromosomal aberrations, Test System: Chinese hamster lung (CHL/IU) cells, Metabolic Activation: Rat, Liver, S9, Phenobarbital and 5,6-benzoflavone): inactive; negative
- mutagenic call (Test System: AMES SALMONELLA TYPHIMURIUM, Strain/Indicator: TA98(NR), Metabolic Activation: NONE, Method: PREINCUBATION): active; positive
- mutagenic call (Test System: AMES SALMONELLA TYPHIMURIUM, Strain/Indicator: TA98(NR), Metabolic Activation: RAT, LIVER, S-9, CLOPHEN A-50, Method: PREINCUBATION): active; positive
- mutagenic call (Test System: AMES SALMONELLA TYPHIMURIUM, Strain/Indicator: TA98, Metabolic Activation: RAT, LIVER, S-9, AROCLOR 1254, Method: PREINCUBATION): active; positive
- mutagenic call (Test System: AMES SALMONELLA TYPHIMURIUM, Strain/Indicator: TA98, Metabolic Activation: RAT, LIVER, S-9, CLOPHEN A-50, Method: PREINCUBATION): active; positive
- mutagenic call (Test System: AMES SALMONELLA TYPHIMURIUM, Strain/Indicator: TA98, Metabolic Activation: RAT, LIVER, S-9, KANECHLOR 500, Method: PREINCUBATION): active; positive
- mutagenic call (Test System: AMES SALMONELLA TYPHIMURIUM, Strain/Indicator: TA100(NR), Metabolic Activation: NONE, Method: PREINCUBATION): active; positive
- mutagenic call (Test System: AMES SALMONELLA TYPHIMURIUM, Strain/Indicator: TA100(NR), Metabolic Activation: RAT, LIVER, S-9, CLOPHEN A-50, Method: PREINCUBATION): active; positive
- mutagenic call (Test System: AMES SALMONELLA TYPHIMURIUM, Strain/Indicator: TA100, Metabolic Activation: RAT, LIVER, S-9, AROCLOR 1254, Method: PREINCUBATION): active; positive
- mutagenic call (Test System: AMES SALMONELLA TYPHIMURIUM, Strain/Indicator: TA100, Metabolic Activation: RAT, LIVER, S-9, AROCLOR, Method: PREINCUBATION): active; positive
- mutagenic call (Test System: AMES SALMONELLA TYPHIMURIUM, Strain/Indicator: TA100, Metabolic Activation: RAT, LIVER, S-9, CLOPHEN A-50, Method: PREINCUBATION): active; positive
- mutagenic call (Test System: AMES SALMONELLA TYPHIMURIUM, Strain/Indicator: TA100, Metabolic Activation: RAT, LIVER, S-9, KANECHLOR 500, Method: PREINCUBATION): active; positive
- mutagenic call (Test System: AMES SALMONELLA TYPHIMURIUM, Strain/Indicator: TA102, Metabolic Activation: NONE, Method: PREINCUBATION): active; positive
- mutagenic call (Test System: AMES SALMONELLA TYPHIMURIUM, Strain/Indicator: TA102, Metabolic Activation: RAT, LIVER, S-9, AROCLOR 1254, Method: PREINCUBATION): active; positive
- mutagenic call (Test System: AMES SALMONELLA TYPHIMURIUM, Strain/Indicator: TA102, Metabolic Activation: RAT, LIVER, S-9, AROCLOR, Method: PREINCUBATION): active; positive
- mutagenic call (Test System: CHINESE HAMSTER V-79, Strain/Indicator: V-79/6-THIOGUANINE, Metabolic Activation: NONE, Method: STANDARD PLATE): active; positive
- mutagenic call (Test System: CHINESE HAMSTER V-79, Strain/Indicator: V-79/6-THIOGUANINE, Metabolic Activation: RAT, HEPATOCYTES): inactive; negative
- mutagenic call (Test System: CHINESE HAMSTER V-79, Strain/Indicator: V-79/OUABAIN, Metabolic Activation: NONE): inactive; negative
- mutagenic call (Test System: CHINESE HAMSTER V-79, Strain/Indicator: V-79/OUABAIN, Metabolic Activation: RAT, HEPATOCYTES): inactive; negative
- mutagenic call (Test System: E. COLI, Strain/Indicator: WP2 UVRA (PKM101), Metabolic Activation: NONE, Method: PREINCUBATION): active; positive
- mutagenic call (Test System: E. COLI, Strain/Indicator: WP2 UVRA (PKM101), Metabolic Activation: RAT, LIVER, S-9, KANECHLOR 1254, Method: PREINCUBATION): active; positive
- mutagenic call (Test System: UDS HUMAN HEPATOCYTES, Strain/Indicator: THY INCORP, Metabolic Activation: NONE, Method: AUTORADIOGRAPHY): active; positive
- mutagenic call (Test System: UDS HUMAN HEPATOCYTES, Strain/Indicator: THY-INCORP, Metabolic Activation: NONE, Method: AUTORADIOGRAPHY): active; positive
- mutagenic call (Test System: UDS MOUSE HEPATOCYTES, Strain/Indicator: THY INCORP, Metabolic Activation: NONE, Method: AUTORADIOGRAPHY): active; positive
- mutagenic call (Test System: UDS RAT HEPATOCYTES, Strain/Indicator: THY INCORP, Metabolic Activation: NONE): active; positive
- mutagenic call (Test System: UDS RAT HEPATOCYTES, Strain/Indicator: THY INCORP, Metabolic Activation: NONE, Method: AUTORADIOGRAPHY): active; positive
- mutagenic call (Test System: UDS RAT HEPATOCYTES, Strain/Indicator: THY-INCORP, Metabolic Activation: NONE, Method: AUTORADIOGRAPHY): active; positive
- mutagenic call (Test System: UDS RODENT HEPATOCYTES, Strain/Indicator: THY INCORP (NON-S-PHASE), Metabolic Activation: IN VIVO, Method: AUTORADIOGRAPHY): active; positive
- mutagenic call (Test System: UDS RODENT HEPATOCYTES, Strain/Indicator: THY INCORP (NON-S-PHASE), Metabolic Activation: NONE, Method: LIQUID SCINTILLATION COUNTING): active; positive
- mutagenic call (Test System: UDS RODENT HEPATOCYTES, Strain/Indicator: THY INCORP (NON-S-PHASE), Metabolic Activation: NONE, Method: PREINCUBATION): inactive; negative

SMILES: NC(=O)/N=N/C(N)=O
- mutagenic call (Test System: AMES SALMONELLA TYPHIMURIUM, Strain/Indicator: TA98, Metabolic Activation: HAMSTER, LIVER, S-9, AROCLOR 1254, Method: STANDARD PLATE): inactive; negative
- mutagenic call [1]: inactive; negative
- mutagenic call (Test System: AMES SALMONELLA TYPHIMURIUM, Strain/Indicator: TA98, Metabolic Activation: RAT, LIVER, S-9, AROCLOR 1254, Method: STANDARD PLATE): inactive; negative
- mutagenic call (Test System: AMES SALMONELLA TYPHIMURIUM, Strain/Indicator: TA100, Metabolic Activation: HAMSTER, LIVER, S-9, AROCLOR 1254, Method: STANDARD PLATE): active; positive
- mutagenic call [2]: active; positive
- mutagenic call [3]: active; positive
- mutagenic call (Test System: MOUSE LYMPHOMA, Strain/Indicator: L5178Y (TK+/TK-), Metabolic Activation: NONE, Method: SUSPENSION/PLATE): inactive; negative. reevaluation of results: inconclusive
- mutagenic call (Test System: MOUSE LYMPHOMA, Strain/Indicator: L5178Y (TK+/TK-), Metabolic Activation: RAT, LIVER, S-9, AROCLOR 1254, Method: SUSPENSION/PLATE): inactive; negative. reevaluation of results: negative

SMILES: Cc1ccc2c(C)c3ccc4c(c3nc2c1)C=C[C@H](O)[C@H]4O
- mutagenic call [3]: active; positive

SMILES: COc1ccc2oc([N+](=O)[O-])cc2c1N(CCCl)CCCl
- mutagenic call (Test System: AMES SALMONELLA TYPHIMURIUM, Strain/Indicator: TA100(NR), Metabolic Activation: NONE, Method: STANDARD PLATE): active; positive
- mutagenic call (Test System: AMES SALMONELLA TYPHIMURIUM, Strain/Indicator: TA100(NR), Metabolic Activation: RAT, LIVER, S-9, AROCLOR 1254, Method: STANDARD PLATE): active; positive
- mutagenic call [2]: active; positive
- mutagenic call [3]: active; positive

SMILES: CCOP(=S)(OCC)SCCl
- mutagenic call (Test System: AMES SALMONELLA TYPHIMURIUM, Strain/Indicator: TA98, Metabolic Activation: NONE): inactive; negative
- mutagenic call [1]: inactive; negative
- mutagenic call (Test System: AMES SALMONELLA TYPHIMURIUM, Strain/Indicator: TA98, Metabolic Activation: RAT, LIVER, S-9, SODIUM PHENOBARBITAL, Method: STANDARD PLATE): inactive; negative
- mutagenic call (Test System: AMES SALMONELLA TYPHIMURIUM, Strain/Indicator: TA98, Metabolic Activation: S-9): inactive; negative
- mutagenic call (Test System: AMES SALMONELLA TYPHIMURIUM, Strain/Indicator: TA100, Metabolic Activation: NONE): inactive; negative
- mutagenic call [2]: inactive; negative
- mutagenic call (Test System: AMES SALMONELLA TYPHIMURIUM, Strain/Indicator: TA100, Metabolic Activation: RAT, LIVER, S-9, SODIUM PHENOBARBITAL, Method: STANDARD PLATE): inactive; negative
- mutagenic call (Test System: AMES SALMONELLA TYPHIMURIUM, Strain/Indicator: TA100, Metabolic Activation: S-9): inactive; negative
- mutagenic call (Test System: E. COLI, Strain/Indicator: WP2, Metabolic Activation: NONE): inactive; negative
- mutagenic call (Test System: E. COLI, Strain/Indicator: WP2, Metabolic Activation: RAT, LIVER, S-9, SODIUM PHENOBARBITAL, Method: STANDARD PLATE): inactive; negative
- mutagenic call (Test System: E. COLI, Strain/Indicator: WP2, Metabolic Activation: S-9): inactive; negative
- mutagenic call (Test System: E. COLI, Strain/Indicator: WP2 UVRA, Metabolic Activation: NONE): inactive; negative
- mutagenic call (Test System: E. COLI, Strain/Indicator: WP2 UVRA, Metabolic Activation: RAT, LIVER, S-9, SODIUM PHENOBARBITAL, Method: STANDARD PLATE): inactive; negative
- mutagenic call (Test System: E. COLI, Strain/Indicator: WP2 UVRA, Metabolic Activation: S-9): inactive; negative
